Experimental data from patent US20240206469A1, “PHOSPHORUS USE EFFICIENCY ENHANCERS AS PLANT GROWTH PROMOTORS” (EUROCHEM ANTWERPEN, priority 2021, published 2024).

What was measured:
[1] = tested on: SPX1 phosphate starvation biomarker; assay: Chemical activity assessment with Arabidopsis pSPX1::GUS reporter line (GUS stained area); type: in vivo, Arabidopsis thaliana; conditions: low phosphate, 50 μM, 7 days after germination; compare with low phosphate controls of same plate (Table 5 c3)
Method: (§1) All Arabidopsis plant experiments were performed using the Arabidopsis thaliana Columbia-0 background. The Arabidopsis pSPX1::GUS line is described in the Plant Journal 2008, 54: 965-975. For rice, the cultivar Nipponbare was used. For maize, the cultivars DKC 2931 and B104 were used for regular pot experiments and sand-based pot experiments, respectively. For soybean, the cultivar Primus was used. […] The medium was solidified due to the addition of 0.6% Gelrite, unless stated otherwise. In case of vertical plates (root length and root hair measurements), the medium was supplied with 0.5% of sucrose and 1 μM (low phosphate, 1 μM KH2PO4, 9.9 mM KCl), 10 μM (low phosphate 10 μM KH2PO4, 9.9 mM KCl) or 1.25 mM KH2PO4 (high phosphate). Arabidopsis seeds were stratified for 2 days at 4° C. before germination. Seedlings were germinated in climate-controlled growth chambers at 22° C. under continuous light (100 μmol m^−2 s^−1). Husked rice seeds were germinated on wetted Whatman paper for 2 days at 37° C. and then transferred to Sterivent boxes or square Petri dishes with solid medium. Maize and soybean seeds were wetted 24 hours at room temperature prior to sowing in pots.
For the chemical activity assessment 3 to 8 seeds per well of Arabidopsis pSPX1::GUS line were sown in 96-well plates containing 150 μl of low phosphate modMS liquid medium containing 1% of sucrose. Compounds were added in 50 μM concentration, starting from a 5 mM stock of compounds solved in DMSO. Different chemical substances were separately added to different wells. Per plate, 16 control wells were used, 8 containing only the low phosphate medium and 1% DMSO, and 8 containing high phosphate medium and 1% DMSO. 7 days after germination, plates were scanned using a flatbed scanner (EPSON Expression 11000XL) and analyzed for leaf size. After scanning, the growth medium was replaced by GUS staining solution (see Plant Mol. Biol. Rep. 1994, 12: 37-42 for details) and incubated for 1.5 hours at 37° C. The plates were scanned a second time and analyzed for GUS signal area. Measurements of both leaf area and GUS signal area were conducted by filtering out and measure the green and blue signal, respectively using ImageJ software. If the green leaf area was 50% or less than the control, samples were omitted. Additionally, all results were visually screened for leaf size and GUS signal.

[2] = tested on: Arabidopsis root hairs; assay: Root hair number and length quantification; type: in vivo, Arabidopsis thaliana; conditions: Arabidopsis thaliana, read-out: Total root hair length per root (in % compared to the control)
Method: as §1
Roots were imaged using a stereomicroscope or a VHX-6000. Number and length of the root hairs parallel to the medium surface was determined at 4 to 6 mm above the root meristem. Root hair length was measured using the ImageJ software.

[3] = tested on: Maize; assay: Maize growth experiment in pots with mixture of unfertilized potting soil and sand (leaf 5); type: in vivo
Method: For a subset of compounds, we performed a more extensive analysis on their root hair inducing effect in a dose-response experiment (Table 3). This confirms that the more simple structures 8.14 and 8.14.6 still retain the activity of compound 8. […] To validate this, we performed a maize growth experiment using compound 8 and the, based on the increase of total root hair length, stronger variant 8.14.6. The experiment was conducted in pots with a mixture of unfertilized potting soil and sand, and leaf 5 was measured after 29 days (Table 4).

## O=C(CN1CC(C(=O)N2CCCCC2)Oc2ccccc21)N1CC=C(c2ccccc2)CC1 (centres unmarked) [Compound 8.14.1]
[1]
  GUS (SPX1) stained area normalized to the number of seeds: 22 pixels

## COc1ccc(C)cc1NCC(N)=O [Compound 8.14.6]
[2]
  activity at 0.6 µM: 231%
  activity at 1.25 µM: 592%
[3]; leaf 5 after 29 days
  Growth-promoting effect on maize versus compound 8: even a stronger growth-promoting effect
[3]; maize, pots with unfertilized potting soil and sand, after 29 days, control 38.1
  Leaf 5: 41.8 cm
[1]
  GUS (SPX1) stained area normalized to the number of seeds: 2 pixels

## CC(C)(C)c1csc(NC(=O)CN2C(=O)COc3ccccc32)n1 [Compound 8.14.4]
[1]
  GUS (SPX1) stained area normalized to the number of seeds: 46 pixels

## CN(Cc1ccc(Br)s1)C(=O)CN1C(=O)CCOc2ccccc21 [Compound 8.14.2]
[1]
  GUS (SPX1) stained area normalized to the number of seeds: 39 pixels

## COc1ccc([N+](=O)[O-])cc1NCC(=O)N1CCCC1c1cccs1 (centres unmarked) [Compound 8.14.5]
[1]
  GUS (SPX1) stained area normalized to the number of seeds: 93 pixels

## Cc1ccc2c(c1)OC(C)CN2CC(N)=O (centres unmarked) [Compound 8.14]
[2]
  activity at 0.6 µM: 231%
  activity at 1.25 µM: 343%
[2]; 2.5 μM
  activity at 2.5 µM: 493%
[2]; 5 μM
  activity at 5 µM: 803%
[1]
  GUS (SPX1) stained area normalized to the number of seeds: 2 pixels
